Measured values taken from patent US20230136569A1, “USE OF NMN TO REDUCE IMMUNODEPRESSION AND IMMUNOSENESCENCE” (NUVAMID SA, priority 2020, published 2023).

Columns and labels:
Assay type in all cases: in vivo
[1] = system: thymus; assay: Weight and size of the thymus (thymic involution) in old mice; settings: old mice (15 months), 500 mg/kg p.o. in drinking water; α-NMN 4 weeks, β-NMN 6 weeks; vs non-treated old mice (FIG. 2)
Protocol: The administering of β-NMN at 500 mg/kg, of α-NMN at 500 mg/kg and of the vehicle (water) was obtained via oral route (p.o) in the drinking water to young and old mice. The solutions were prepared by dissolving the powder of β-NMN or α-NMN in the vehicle (water). The study comprised 4 groups each having 6 mice: • Group 1: young mice (aged 10 weeks)+drinking water (vehicle) • Groupe 2: old mice (aged 15 months)+drinking water (vehicle) • Group 3: old mice (aged 15 months)+compound I-B (alpha-NMN) in the drinking water • Group 4: old mice (aged 15 months)+compound I-A (beta-NMN) in the drinking water The water consumption of the mice was assessed per cage every other day. The mice were weighed every week. The mice in Group 3 were sacrificed after 4 weeks for organ collection and characterisation of T cell function. The mice in Group 4 were sacrificed after 6 weeks for organ collection and characterisation of T cell function. On the day of sacrifice, the mice were anaesthetised with Vetoflurane (isoflurane) and blood samples were taken from the retroorbital sinus. The blood was incubated for 30 minutes at ambient temperature and then centrifuged at 1300 g for 10 minutes. […] The thymus was weighed and measured to evaluate involution thereof. […] Measured parameters: The results of flow cytometry are expressed in number or as a proportion of cells per organ. […]

[2] = system: B cells in the bone marrow; assay: Flow cytometry of B cells in bone marrow of old mice; settings: 500 mg/kg p.o., α-NMN 4 weeks; for number of CD38+ B cells in bone marrow: β-NMN 6 weeks (FIG. 4B); for number of CD45+ B cells in bone marrow: β-NMN 6 weeks (FIG. 5A); for number of pre-pro-B cells in bone marrow: β-NMN 6 weeks (FIG. 5B); for number of pro-B cells in bone marrow: β-NMN 6 weeks (FIG. 5C); for number of pre-B cells in bone marrow: β-NMN 6 weeks (FIG. 5D); for number of immature B cells in bone marrow: β-NMN 6 weeks (FIG. 5E); for number of B cells in bone marrow: β-NMN 6 weeks, vs non-treated old mice (FIG. 4A)
Protocol: The administering of β-NMN at 500 mg/kg, of α-NMN at 500 mg/kg and of the vehicle (water) was obtained via oral route (p.o) in the drinking water to young and old mice. The solutions were prepared by dissolving the powder of β-NMN or α-NMN in the vehicle (water). The study comprised 4 groups each having 6 mice: • Group 1: young mice (aged 10 weeks)+drinking water (vehicle) • Groupe 2: old mice (aged 15 months)+drinking water (vehicle) • Group 3: old mice (aged 15 months)+compound I-B (alpha-NMN) in the drinking water • Group 4: old mice (aged 15 months)+compound I-A (beta-NMN) in the drinking water The water consumption of the mice was assessed per cage every other day. The mice were weighed every week. The mice in Group 3 were sacrificed after 4 weeks for organ collection and characterisation of T cell function. The mice in Group 4 were sacrificed after 6 weeks for organ collection and characterisation of T cell function. On the day of sacrifice, the mice were anaesthetised with Vetoflurane (isoflurane) and blood samples were taken from the retroorbital sinus. The blood was incubated for 30 minutes at ambient temperature and then centrifuged at 1300 g for 10 minutes. After sacrificing of the mice, the spleen, thymus, and bone marrow of each animal were removed. The thymus was weighed and measured to evaluate involution thereof. For illustration purposes, photos of the thymus were taken on 5 animals per group. The thymus was divided into two parts: one part was treated with formol for histological examination. The second part was treated for characterisation of the immune cells. For characterisation of the cells, the thymus and spleen were crushed through a sieve of […] over a 50 mL tube with a syringe plunger. The bone marrow was rinsed with RPMI culture medium using a needle and syringe. The cell suspension was then centrifuged at 400 g for 5 minutes at 4° C. Lysis of the red blood cells was also performed before the cell count and use thereof for cytometry. The isolated cells of the spleen, thymus and bone marrow were marked with antibodies in accordance with the following tables to identify the proportion of effector and memory naive T and B cells. The following bone marrow cells were also examined for characterisation as a function of the combination of proteins on the surface thereof: [table] Measured parameters: The results of flow cytometry are expressed in number or as a proportion of cells per organ. The weight of the thymus is expressed in grams.

[3] = system: B cells present in the spleen; assay: Flow cytometry of B cells in the spleen of old mice; settings: 500 mg/kg p.o., 6 weeks
Protocol: The administering of β-NMN at 500 mg/kg, of α-NMN at 500 mg/kg and of the vehicle (water) was obtained via oral route (p.o) in the drinking water to young and old mice. The solutions were prepared by dissolving the powder of β-NMN or α-NMN in the vehicle (water). The study comprised 4 groups each having 6 mice: • Group 1: young mice (aged 10 weeks)+drinking water (vehicle) • Groupe 2: old mice (aged 15 months)+drinking water (vehicle) • Group 3: old mice (aged 15 months)+compound I-B (alpha-NMN) in the drinking water • Group 4: old mice (aged 15 months)+compound I-A (beta-NMN) in the drinking water The water consumption of the mice was assessed per cage every other day. The mice were weighed every week. The mice in Group 3 were sacrificed after 4 weeks for organ collection and characterisation of T cell function. The mice in Group 4 were sacrificed after 6 weeks for organ collection and characterisation of T cell function. On the day of sacrifice, the mice were anaesthetised with Vetoflurane (isoflurane) and blood samples were taken from the retroorbital sinus. The blood was incubated for 30 minutes at ambient temperature and then centrifuged at 1300 g for 10 minutes. After sacrificing of the mice, the spleen, thymus, and bone marrow of each animal were removed. The thymus was weighed and measured to evaluate involution thereof. For illustration purposes, photos of the thymus were taken on 5 animals per group. The thymus was divided into two parts: one part was treated with formol for histological examination. The second part was treated for characterisation of the immune cells. For characterisation of the cells, the thymus and spleen were crushed through a sieve of […] over a 50 mL tube with a syringe plunger. The bone marrow was rinsed with RPMI culture medium using a needle and syringe. The cell suspension was then centrifuged at 400 g for 5 minutes at 4° C. Lysis of the red blood cells was also performed before the cell count and use thereof for cytometry. The isolated cells of the spleen, thymus and bone marrow were marked with antibodies in accordance with the following tables to identify the proportion of effector and memory naive T and B cells. The following B cells of the spleen were also examined for characterisation as a function of the combination of proteins on the surface thereof: [table] Measured parameters: The results of flow cytometry are expressed in number or as a proportion of cells per organ. The weight of the thymus is expressed in grams.

With NC(=O)c1ccc[n+]([C@@H]2O[C@H](COP(=O)([O-])O)[C@@H](O)[C@H]2O)c1 (stereo in doubt) [I-A, nicotinamide mononucleotide] the “weight and size of the thymus” value [1] was “significant increase in the size of the thymus”, the “number of CD38+ B cells in bone marrow” value [2] was “restoring of the number of CD38+ B cells to the level expressed by the young mice” and the “number of CD45+ B cells in bone marrow” value [2] was “significant increase in the number of CD45+ B cells”. For the same molecule, the “number of pre-pro-B cells in bone marrow” value [2] was “increase in the number of pre-pro B cells”, the “number of pro-B cells in bone marrow” value [2] was “does not show any impact on the number of pro-B cells” and the “number of pre-B cells in bone marrow” value [2] was “increase in the number of pre-B cells”. The “number of immature B cells in bone marrow” value [2] was “increase”, the “number of B cells in bone marrow” value [2] was “significant increase in the number of B cells” and the “number of activated B cells in the spleen” value ([3]; compared with the other groups (FIG. 6B)) was “increase in the number of activated B cells”. For the same molecule, the “number of memory B cells in the spleen” value ([3]; compared with the other groups (FIG. 6C)) was “increase”, the “number of germinal B cells in the spleen” value ([3]; compared with the other groups (FIG. 6D)) was “increase” and the “number of B cells in the spleen” value ([3]; compared with the other groups of mice (FIG. 6A)) was “significantly increased”.
With NC(=O)c1ccc[n+]([C@H]2O[C@H](COP(=O)([O-])O)[C@@H](O)[C@H]2O)c1 (stereo in doubt) [I-B, alpha nicotinamide mononucleotide] the “weight and size of the thymus” value [1] was “did not allow an increase in the volume or size of the thymus”, the “number of CD38+ B cells in bone marrow” value [2] was “restoring of the number of CD38+ B cells to the level expressed by the young mice” and the “number of CD45+ B cells in bone marrow” value [2] was “significant increase in the number of CD45+ B cells”. For the same molecule, the “number of pre-pro-B cells in bone marrow” value [2] was “increase in the number of pre-pro B cells”, the “number of pro-B cells in bone marrow” value [2] was “does not show any impact on the number of pro-B cells” and the “number of pre-B cells in bone marrow” value [2] was “increase in the number of pre-B cells”. The “number of immature B cells in bone marrow” value [2] was “increase” and the “number of B cells in bone marrow” value [2] was “significant increase in the number of B cells”.
